The values below come from PubChem BioAssay (NCI).

Test systems include LOX IMVI melanoma; MDA-MB-231 breast; UO-31 renal; SW-620 colon; SF-268 CNS; IGROV1 ovarian; HCC-2998 colon; A498 renal; RXF 393 renal; M14 melanoma; CCRF-CEM leukemia; SK-MEL-5 melanoma.
Test in all cases: NCI anticancer screen, dose series, 48 h

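Cultured in 96-well plates, cells were exposed to test compound for 48 hours across five concentrations. TGI marks complete inhibition of growth.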

With `O=C(CN1CCCCC1)c1ccc2c(c1)Sc1ccccc1O2`, the TGI was found to be 40.3 µM with LOX IMVI melanoma; 37.2 µM with MDA-MB-231 breast; 22.9 µM in the experiment on UO-31 renal; 39.1 µM with SW-620 colon; 33.9 µM in the experiment with SF-268 CNS; 23.5 µM in the experiment with IGROV1 ovarian. In addition, the TGI with HCC-2998 colon came out at 37 µM; in the experiment with A498 renal it was 39.3 µM; in the experiment on RXF 393 renal, 21 µM; in the experiment with M14 melanoma, 28.5 µM; with CCRF-CEM leukemia, 34.4 µM.
As to `CCOC(=O)/C(C#N)=C/c1ccc(CO)o1`, the TGI in the experiment with LOX IMVI melanoma, in the experiment on SK-MEL-5 melanoma, in the experiment with MDA-MB-231 breast, in the experiment with SW-620 colon, in the experiment on SF-268 CNS and in the experiment on IGROV1 ovarian was > 100 µM in each case. Besides, the TGI with HCC-2998 colon, in the experiment on A498 renal, in the experiment with RXF 393 renal and in the experiment with M14 melanoma was > 100 µM throughout.
Regarding `COc1ccc(Oc2nc3ccc(C(F)(F)F)cc3nc2-c2ccccc2)cc1`, the TGI with LOX IMVI melanoma, in the experiment with SK-MEL-5 melanoma, with MDA-MB-231 breast, in the experiment with UO-31 renal, in the experiment with SW-620 colon and in the experiment on SF-268 CNS was > 100 µM in each case. Besides, the TGI with IGROV1 ovarian, in the experiment with HCC-2998 colon, in the experiment on A498 renal, in the experiment with RXF 393 renal and in the experiment on CCRF-CEM leukemia was > 100 µM throughout.
For `Cn1c(-c2ccc[se]2)ccc1-c1ccc(CO)[se]1`, the TGI in the experiment with LOX IMVI melanoma was > 64.1 µM; with SK-MEL-5 melanoma it was > 100 µM; with MDA-MB-231 breast, > 88.2 µM; in the experiment with UO-31 renal it was > 100 µM; with SW-620 colon, > 100 µM; with SF-268 CNS it was > 100 µM. Further, the TGI was 19.3 µM in the experiment with HCC-2998 colon; 0.14 µM in the experiment on A498 renal; 6.26 µM in the experiment on RXF 393 renal; > 100 µM in the experiment on M14 melanoma; > 100 µM in the experiment with CCRF-CEM leukemia.
With `CN1C/C(=C\c2ccc(Cl)cc2)C(=O)/C(=C/c2ccc(Cl)cc2)C1`, the TGI with LOX IMVI melanoma was 0.612 µM; with SK-MEL-5 melanoma, > 26.5 µM; in the experiment with MDA-MB-231 breast, 8.08 µM; in the experiment with SW-620 colon, > 100 µM; in the experiment with SF-268 CNS it was > 100 µM; in the experiment with IGROV1 ovarian, > 100 µM. The TGI in the experiment on HCC-2998 colon is > 100 µM; in the experiment with A498 renal, 3.2 µM; in the experiment on RXF 393 renal, 1.22 µM; with M14 melanoma it was 5.48 µM; in the experiment on CCRF-CEM leukemia, 1.37 µM.
On to `O=C1OC2(C(F)(F)F)Oc3ccccc3CN2C12CCCCC2` (stereo unspecified), for which the TGI in the experiment with LOX IMVI melanoma was 52.7 µM; in the experiment on MDA-MB-231 breast, 59.5 µM; with UO-31 renal, 84.3 µM; with SW-620 colon, > 100 µM; in the experiment with SF-268 CNS, > 100 µM; with IGROV1 ovarian, > 100 µM. The TGI is > 100 µM in the experiment with HCC-2998 colon; > 100 µM in the experiment with A498 renal; 48.9 µM with RXF 393 renal; 66 µM in the experiment with M14 melanoma; 62.7 µM with CCRF-CEM leukemia.
In the case of `COc1ccc(/C=C(\C(=C/c2ccc(OC)cc2)[N+](=O)[O-])[N+](=O)[O-])cc1`, the TGI with LOX IMVI melanoma was 5 µM; in the experiment with SK-MEL-5 melanoma, 15.9 µM; with MDA-MB-231 breast, 5.56 µM; with UO-31 renal it was 16.7 µM; in the experiment on SW-620 colon, 7.87 µM; in the experiment with SF-268 CNS, 20.8 µM. Also, the TGI was 15.4 µM in the experiment with IGROV1 ovarian; 30.9 µM with HCC-2998 colon; 79 µM in the experiment with A498 renal; 4.33 µM in the experiment with RXF 393 renal; 18.2 µM with M14 melanoma.
`NS(=O)(=O)c1ccc(Nc2c3ccccc3nc3c(C(=O)NCCCN(CCO)CCO)cccc23)cc1`: the TGI is 59.1 µM in the experiment with LOX IMVI melanoma; 32.4 µM in the experiment with SK-MEL-5 melanoma; > 100 µM in the experiment with MDA-MB-231 breast; > 100 µM in the experiment on UO-31 renal; 52.7 µM in the experiment with SW-620 colon; 45.5 µM with SF-268 CNS. In addition, the TGI is 68.2 µM with IGROV1 ovarian; 54.8 µM in the experiment with HCC-2998 colon; > 100 µM with A498 renal; 45.1 µM in the experiment with M14 melanoma; 58.6 µM in the experiment on CCRF-CEM leukemia.
`O=C(NCCCCNCCCNC(=O)c1ccccc1)c1ccccc1`: the TGI in the experiment with SK-MEL-5 melanoma, in the experiment with MDA-MB-231 breast, with UO-31 renal, in the experiment on SW-620 colon, in the experiment on SF-268 CNS and in the experiment with IGROV1 ovarian was > 100 µM in each case. In addition, the TGI in the experiment with HCC-2998 colon, in the experiment with A498 renal, with RXF 393 renal, in the experiment with M14 melanoma and in the experiment on CCRF-CEM leukemia was > 100 µM throughout.
With `O=C1CCCC2=C1C(c1ccc3c(c1)OCO3)Nc1ccc3ccccc3c12` (stereo unspecified), the TGI in the experiment with SK-MEL-5 melanoma, in the experiment on MDA-MB-231 breast, in the experiment on UO-31 renal, in the experiment on SW-620 colon, in the experiment on SF-268 CNS and with IGROV1 ovarian was > 100 µM in each case. The TGI with HCC-2998 colon, in the experiment with A498 renal, in the experiment with RXF 393 renal, in the experiment on M14 melanoma and in the experiment with CCRF-CEM leukemia was > 100 µM in each case.
As to `CCOP(=O)(OCC)/C(=C\N1C(=O)CC(=O)NC1=S)C(=O)OC`, the TGI with LOX IMVI melanoma, in the experiment on SK-MEL-5 melanoma, in the experiment with MDA-MB-231 breast, in the experiment on UO-31 renal, with SW-620 colon and in the experiment with SF-268 CNS was > 100 µM each time. Also, the TGI in the experiment with IGROV1 ovarian, in the experiment with HCC-2998 colon, in the experiment on A498 renal, with RXF 393 renal and in the experiment on M14 melanoma was > 100 µM each time.
For the compound `O=c1[nH]c(=O)n(COCc2ccccc2)c2ccc([N+](=O)[O-])cc12`, the TGI with LOX IMVI melanoma, in the experiment on SK-MEL-5 melanoma, with MDA-MB-231 breast, in the experiment on UO-31 renal, with SW-620 colon and in the experiment with IGROV1 ovarian was > 100 µM throughout. Moreover, the TGI in the experiment on HCC-2998 colon, with A498 renal, in the experiment with RXF 393 renal, with M14 melanoma and in the experiment on CCRF-CEM leukemia was > 100 µM throughout.
